The target in the test is T1, human APJ receptor (Homo sapiens, UniProt P35414).
T1 construct: expressed in transfected cells; host or cells: HEK293
T1 sequence (P35414 1-380): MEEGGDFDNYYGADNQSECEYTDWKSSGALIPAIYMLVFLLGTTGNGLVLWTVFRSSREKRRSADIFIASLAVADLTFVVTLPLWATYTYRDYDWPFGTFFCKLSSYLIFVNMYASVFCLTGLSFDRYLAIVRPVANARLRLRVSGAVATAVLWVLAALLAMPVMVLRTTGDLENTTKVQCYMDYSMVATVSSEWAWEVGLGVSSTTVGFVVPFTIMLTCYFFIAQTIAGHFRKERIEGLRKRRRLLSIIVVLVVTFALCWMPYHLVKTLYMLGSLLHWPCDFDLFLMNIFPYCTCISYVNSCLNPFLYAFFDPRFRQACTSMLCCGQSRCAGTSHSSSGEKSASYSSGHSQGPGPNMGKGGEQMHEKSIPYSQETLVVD
Nature of the test: Intracellular cAMP Accumulation Assay (APJ hcAMP, HTRF). It counts as cell-based. The following applies: read-out: hAPJ cAMP EC50 Potency range. A digest of the protocol:
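Stably transfected HEK293 cells (5,000/well) incubated 30 min at room temperature with serially diluted compound, […] and 2 μM forskolin. cAMP measured by HTRF after 60 min with detection reagents, quantified against a cAMP standard curve; EC50 from variable-slope sigmoidal fit of inhibition of forskolin-stimulated cAMP.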
For orientation: Time-resolved FRET reads energy transfer from a long-lived donor to a nearby acceptor.

As a reminder, the EC50 is the concentration giving half of the maximal effect. For `CCCCc1nc(=O)c(C(=O)N2CCC(Oc3ccc(C(C)(C)C)cc3)CC2)c(O)n1-c1c(OC)cccc1OC` [Example 381, 2-butyl-5-(4-(4-(tert-butyl)phenoxy)piperidine-1-carbonyl)-1-(2,6-dimethoxyphenyl)-6-hydroxypyrimidin-4(1H)-one], the 50% effective concentration (EC50) lay in the range of 10 to 100 nM. In the case of `CCCCc1nc(=O)c(C(=O)N2CCC(Oc3ccccc3Cl)CC2)c(O)n1-c1c(OC)cccc1OC` [Example 382, 2-butyl-5-(4-(2-chlorophenoxy)piperidine-1-carbonyl)-1-(2,6-dimethoxyphenyl)-6-hydroxypyrimidin-4(1H)-one], the EC50 was 0.01 to 10 nM. Consider `CCCCc1nc(=O)c(C(=O)N2CCC(Oc3cccc(F)c3Cl)CC2)c(O)n1-c1c(OC)cccc1OC` [Example 383, 2-butyl-5-(4-(2-chloro-3-fluorophenoxy)piperidine-1-carbonyl)-1-(2,6-dimethoxyphenyl)-6-hydroxypyrimidin-4(1H)-one], for which the 50% effective concentration (EC50) was 0.01 to 10 nM. Then `CCCCc1nc(=O)c(C(=O)N2CCC(Oc3cc(F)ccc3Cl)CC2)c(O)n1-c1c(OC)cccc1OC` [Example 385, 2-butyl-5-(4-(2-chloro-5-fluorophenoxy)piperidine-1-carbonyl)-1-(2,6-dimethoxyphenyl)-6-hydroxypyrimidin-4(1H)-one], with 0.01 to 10 nM; and `CCCCc1nc(=O)c(C(=O)N2CCC(Oc3cc(F)cc(F)c3Cl)CC2)c(O)n1-c1c(OC)cccc1OC` [Example 386, 2-butyl-5-(4-(2-chloro-3,5-difluorophenoxy)piperidine-1-carbonyl)-1-(2,6-dimethoxyphenyl)-6-hydroxypyrimidin-4(1H)-one], with 0.01 to 10 nM; and `CCCCc1nc(=O)c(C(=O)N2CCC(Oc3cccc(F)c3F)CC2)c(O)n1-c1c(OC)cccc1OC` [Example 387, 2-butyl-5-(4-(2,3-difluorophenoxy)piperidine-1-carbonyl)-1-(2,6-dimethoxyphenyl)-6-hydroxypyrimidin-4(1H)-one], with 0.01 to 10 nM. The same measure for `CCCCc1nc(=O)c(C(=O)N2CCN(Cc3cccc(F)c3F)CC2)c(O)n1-c1c(OC)cccc1OC` [Example 388, 2-butyl-5-(4-(2,3-difluorobenzyl)piperazine-1-carbonyl)-1-(2,6-dimethoxyphenyl)-6-hydroxypyrimidin-4(1H)-one]: 0.01 to 10 nM.

The record behind these values is patent US10590113B2, “6-hydroxy-4-oxo-1,4-dihydropyrimidine-5-carboxamides as APJ agonists” (priority 2016, dated 2020).
